Some test systems named below: XF 498 CNS; LXFL 529 NSCLC; DMS 273 small cell lung; DLD-1 colon; KM20L2 colon; SNB-78 CNS.
Common to all, as to assay: inhibition of tumour cell growth, NCI panel, 48 h

SMILES strings stand for the structures.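 Dose response: 5 concentrations. Exposure: 48 h. Format: 96-well plates. Endpoint: linear interpolation; highest concentration if not reached. TGI: total growth inhibition.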

Regarding `COC(=O)C(=Cc1cc(OC)c(OC)c(OC)c1-c1cc2c(cc1C(C)=O)OCO2)C(=O)OC`, the TGI in the experiment on XF 498 CNS came to 59.7 µM; with LXFL 529 NSCLC, 65.9 µM; with DMS 273 small cell lung it was 69 µM; with DLD-1 colon, 53.7 µM; in the experiment with KM20L2 colon, 62.8 µM.

Turning to `C/C(=C1/CCC/C(=C(/C)c2ccccc2)C1=O)c1ccccc1`, the TGI in the experiment on SNB-78 CNS was over 100 µM; in the experiment with XF 498 CNS, 82 µM; with LXFL 529 NSCLC it was over 100 µM; with DMS 273 small cell lung, over 100 µM; with DLD-1 colon it was over 100 µM; in the experiment with KM20L2 colon it was over 100 µM.

Consider `COc1ccc(-c2cc(=O)c3ccccc3[nH]2)c(OC)c1`, for which the TGI in the experiment with SNB-78 CNS, in the experiment on LXFL 529 NSCLC, with DMS 273 small cell lung, with DLD-1 colon and in the experiment on KM20L2 colon was over 100 µM throughout.

Consider `CCN(CC)CC(=O)O[C@]1(CC)C(=O)OCc2c1cc1n(c2=O)Cc2cc3ccccc3nc2-1`, for which the TGI is over 100 µM in the experiment on SNB-78 CNS; 2.19 µM in the experiment on XF 498 CNS; 3.3 µM with LXFL 529 NSCLC; 0.0304 µM in the experiment on DMS 273 small cell lung; over 100 µM with DLD-1 colon; 0.887 µM with KM20L2 colon.

For `Cc1ccc(S(=O)(=O)OC(c2ccc(Cl)cc2Cl)C2OC(=O)c3ccccc32)cc1` (centres undefined), the TGI with SNB-78 CNS, in the experiment with XF 498 CNS, in the experiment on LXFL 529 NSCLC, in the experiment with DMS 273 small cell lung and with KM20L2 colon was over 100 µM in each case.

For the compound `CCOC(=O)C(Cc1cn(S(=O)(=O)c2ccccc2)c2ccccc12)(NC(C)=O)C(=O)OCC`, the TGI in the experiment with XF 498 CNS is over 100 µM; in the experiment with LXFL 529 NSCLC, 95.5 µM; with DMS 273 small cell lung, over 100 µM; with DLD-1 colon it was over 100 µM; in the experiment on KM20L2 colon, over 100 µM.

As to `COc1cccc(/C=C2\C(=O)N(C(=O)c3ccc(NC(C)=O)cc3)N=C2C)c1`, the TGI in the experiment with SNB-78 CNS, with XF 498 CNS, in the experiment on DMS 273 small cell lung and in the experiment with DLD-1 colon was over 100 µM throughout.

With `CCO/N=C(/N)c1ncn(Cc2ccccc2)c1NCC(OCC)OCC`, the TGI with SNB-78 CNS, with XF 498 CNS, with LXFL 529 NSCLC, in the experiment on DMS 273 small cell lung, in the experiment on DLD-1 colon and in the experiment on KM20L2 colon was over 100 µM in each case.

As for `CC(C)N1CN(C(C(=O)N[C@@H]2C(=O)N3C2SC(C)(C)C3C(=O)O)c2ccccc2)CSC1=S` (some centres undefined), the TGI in the experiment with SNB-78 CNS, in the experiment with XF 498 CNS, in the experiment on LXFL 529 NSCLC, in the experiment with DMS 273 small cell lung, in the experiment on DLD-1 colon and with KM20L2 colon was over 100 µM throughout.

Consider `Clc1ccc(-c2c(C3=NCCCN3)nnn2-c2ccc(Cl)cc2)cc1`, for which the TGI in the experiment with SNB-78 CNS was over 100 µM; in the experiment on XF 498 CNS, 53.5 µM; in the experiment on LXFL 529 NSCLC, over 83.3 µM; in the experiment with DMS 273 small cell lung, over 100 µM; in the experiment with DLD-1 colon, over 100 µM; with KM20L2 colon, over 100 µM.

Consider `O=C1NC2OCC(O)C(O)C2O1` (centres undefined), for which the TGI in the experiment on SNB-78 CNS, in the experiment on LXFL 529 NSCLC, in the experiment with DMS 273 small cell lung, with DLD-1 colon and with KM20L2 colon was over 100 µM in each case.

Values taken from PubChem BioAssay (NCI).
